Source: patent US20240002397A1, “3-AMINO PYRROLIDINE AND PIPERIDINE MACROCYCLIC OREXIN RECEPTOR AGONISTS” (Merck Sharp & Dohme LLC, priority 2020, published 2024)

Each compound was assayed against T1, human OX2R (Homo sapiens, UniProt O43614) (assay: IPOne (IP-1) orexin receptor agonist assay in CHO cells expressing human OX2R). Details: CHO, hOX2R IP-One; percentage of mean max effect of a reference compound at 1 uM with 100% activity.
T1 sequence (O43614 1-444): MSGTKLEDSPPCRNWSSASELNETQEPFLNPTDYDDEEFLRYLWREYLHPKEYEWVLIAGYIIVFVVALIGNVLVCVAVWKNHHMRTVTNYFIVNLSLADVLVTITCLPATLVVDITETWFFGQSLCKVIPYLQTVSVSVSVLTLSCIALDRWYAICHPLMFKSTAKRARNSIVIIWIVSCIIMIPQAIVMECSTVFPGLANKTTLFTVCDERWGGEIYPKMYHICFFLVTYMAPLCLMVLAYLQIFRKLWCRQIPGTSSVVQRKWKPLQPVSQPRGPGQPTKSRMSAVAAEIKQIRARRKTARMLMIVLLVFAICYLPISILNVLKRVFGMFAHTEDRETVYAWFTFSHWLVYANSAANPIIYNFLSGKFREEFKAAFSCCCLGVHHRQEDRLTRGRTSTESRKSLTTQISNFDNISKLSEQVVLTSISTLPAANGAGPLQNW
Method: In atypical experiment, the OX1 and OX2 receptor agonist activity is determined in accordance with the following general experimental method. Chinese hamster ovary (CHO) cells expressing human OX1R and/or the human OX2R were grown in Iscove's modified DMEM containing glutaMAX™, 1% G418, 100 U/mL penicillin, 100 μg/mL streptomycin and 10% heat-inactivated qualified fetal bovine serum (FBS). […] During this incubation, IP-one detection reagents were prepared (38:1:1 lysis buffer:D2:AB-cryptate reagents).
For each compound, data were fit to a four parameter logistic fit (ActivityBase software) and the EC50 was reported as the inflection point of the resulting curve.

Emax | SMILES
103% | C[C@@H]1C[C@H](NS(C)(=O)=O)C2COC3CCC(CC3)c3cnc(F)c(c3)OCCCOC(=O)N21 (some centres unmarked) [Example 55, N-((2^1S,2^4S,5^2R,5^3S,5^5R)-1^6-fluoro-5^5-methyl-6-oxo-3,7,11-trioxa-1(3,5)-pyridina-5(2,1)-pyrrolidina-2(1,4)-cyclohexanacycloundecaphane-5^3-yl)methanesulfonamide]
103% | C[C@@H]1C[C@H](NS(C)(=O)=O)C2COC3CCC(CC3)c3ccc(F)c(n3)NCCCOC(=O)N21 (some centres unmarked) [Example 93, N-((2^1S,2^4S,5^2R,5^3S,5^5R)-1^5-fluoro-5^5-methyl-6-oxo-3,7-dioxa-11-aza-1(2,6)-pyridina-5(2,1)-pyrrolidina-2(1,4)-cyclohexanacycloundecaphane-5^3-yl)methanesulfonamide]
101% | CN(C)S(=O)(=O)N[C@H]1CCCN2C(=O)OCCCOc3cccc(c3)C3CCC(CC3)OC[C@@H]12 [Example 25, N′-((2^1S,2^4S,5^2R,5^3S)-6-oxo-3,7,11-trioxa-5(2,1)-piperidina-1(1,3)-benzena-2(1,4)-cyclohexanacycloundecaphane-5^3-yl)-N,N-dimethyl-sulfamide]
99.7% | COc1cc2nc(c1)C1CCC(CC1)OCC1[C@@H](NS(=O)(=O)C(F)F)C[C@@H](C)N1C(=O)OCCO2 (some centres unmarked) [Example 105, 1,1-difluoro-N-((2^1R,2^4R,5^2R,5^3S,5^5R)-14-methoxy-5^5-methyl-6-oxo-3,7,10-trioxa-1(2,6)-pyridina-5(2,1)-pyrrolidina-2(1,4)-cyclohex-anacyclodecaphane-5^3-yl)methanesulfonamide]
100% | COC[C@@H]1C[C@H](NS(C)(=O)=O)[C@@H]2COC3CCC(CC3)c3cccc(F)c3CCOC(=O)N12 [Example 6, N-((2^1R,2^4R,5^2R,5^3S, 5^5S)-1^3-fluoro-5^5-(methoxymethyl)-6-oxo-3,7-dioxa-5(2,1)-pyrrolidina-1(1,2)-benzena-2(1,4)-cyclo-hexanacyclonaphane-5^3-yl)methane sulfonamide]
98.4% | C[C@@H]1C[C@H](NS(C)(=O)=O)C2COC3CCC(CC3)c3ccc(C(F)(F)F)c(c3)OCCCOC(=O)N21 (some centres unmarked) [Example 52, N-((2^1S,2^4S,5^2R,5^3S,5^5R)-5^5-methyl-6-oxo-1^4-(trifluoromethyl)-3,7,11-trioxa-5(2,1)-pyrrolidina-1(1,3)-benzena-2(1,4)-cyclohexanacycloundecaphane-5^3-yl)methanesulfonamide]
100% | C[C@@H]1C[C@H](NS(C)(=O)=O)C2COC3CCC(CC3)c3cccc(c3)OCCOC(=O)N21 (some centres unmarked) [Example 17, N-((2^1S,2^4S, 5^2R,5^3S,5^5R)-5^5-methyl-6-oxo-3,7,10-trioxa-5(2,1)-pyrrolidina-1(1,3)-benzena-2(1,4)-cyclohexana-cyclodecaphane-5^3-yl) methanesulfonamide]
99.5% | CCOc1cc2nc(c1)C1CCC(CC1)OCC1[C@@H](NS(C)(=O)=O)C[C@@H](C)N1C(=O)OCCO2 (some centres unmarked) [Example 77, N-((2^1S,2^4S,5^2R,5^3S,5^5R)-1^4-ethoxy-5^5-methyl-6-oxo-3,7,10-trioxa-1(2,6)-pyridina-5(2,1)-pyrrolidina-2(1,4)-cyclohexanacyclodecaphane-5^3-yl)methanesulfonamide]
102% | CS(=O)(=O)N[C@H]1CCCN2C(=O)/C=C/CCOc3cccc(c3)C3CCC(CC3)OC[C@@H]12 [Example 28, N-((2^1S,2^4S,5^2R,5^3S,E)-6-oxo-3,11-dioxa-5(2,1)-piperidina-1(1,3)-benzena-2(1,4)-cyclohexanacycloundecaphan-7-en-5^3-yl)methanesulfonamide]
104% | CN(C)S(=O)(=O)N[C@H]1CCN2C(=O)CCCCOc3cccc(c3)[C@H]3CC[C@H](CC3)OC[C@@H]12 [Example 7, N′-((2^1S,2^4S,5^2R,5^3S)-6-oxo-3,11-dioxa-5(2,1)-pyrrolidina-1(1,3)-benzena-2(1,4)-cyclohexanacycloundecaphane-5^3-yl)-N,N-dimethyl-sulfamide]
101% | C[C@@H]1C[C@H](NS(=O)(=O)N(C)C)[C@@H]2COC3CCC(CC3)c3cccc(c3)OCCCCOC(=O)N12 [Example 11, N′-((2^1S,2^4S,5^2R,5^3S,5^5R)-5^5-methyl-6-oxo-3,7,12-trioxa-5(2,1)-pyrrolidina-1(1,3)-benzena-2(1,4)-cyclohexanacyclododecaphane-5^3-yl)-N,N-dimethyl-sulfamide]
97.2% | COc1cc2nc(c1F)OCCCOC(=O)N1C(COC3CCC2CC3)[C@@H](NS(C)(=O)=O)C[C@H]1C (some centres unmarked) [Example 75, N-((2^1S,2^4S,5^2R,5^3S,5^5R)-1^4-fluoro-1^3-methoxy-5^5-methyl-6-oxo-3,7,11-trioxa-1(2,6)-pyridina-5(2,1)-pyrrolidina-2(1,4)-cyclohexanacycloundecaphane-5^3-yl)methane sulfonamide]
103% | COc1cc2nc(c1)[C@H]1CC[C@H](CC1)OC[C@H]1[C@@H](NS(C)(=O)=O)C[C@@H](C)N1C(=O)OCCCN2 [Example 88, N-((2^1S,2^4S,5^2R,5^3S,5^5R)-1^4-methoxy-5^5-methyl-6-oxo-3,7-dioxa-11-aza-1(2,6)-pyridina-5(2,1)-pyrrolidina-2(1,4)-cyclohexanacycloundecaphane-5^3-yl)methanesulfonamide]
103% | C[C@@H]1C[C@H](NS(C)(=O)=O)C2COC3CCC(CC3)c3cc(ccc3OC(F)(F)F)OCCOC(=O)N21 (some centres unmarked) [Example 53, N-((2^1S,2^4S,5^2R,5^3S,5^5R)-5^5-methyl-6-oxo-16-(trifluoromethoxy)-3,7,10-trioxa-5(2,1)-pyrrolidina-1(1,3)-benzena-2(1,4)-cyclohexanacyclodecaphane-5^3-yl)methanesulfonamide]
98.4% | COc1cc2nc(c1)N(C)CCCOC(=O)N1C(COC3CCC2CC3)[C@@H](NS(C)(=O)=O)C[C@H]1C (some centres unmarked) [Example 95, N-((2^1S,2^4S,5^2R,5^3S,5^5R)-1^4-methoxy-5^5,1^1-dimethyl-6-oxo-3,7-dioxa-11-aza-1(2,6)-pyridina-5(2,1)-pyrrolidina-2(1,4)-cyclohexanacycloundecaphane-5^3-yl)methanesulfonamide]
102% | C[C@@H]1C[C@H](NS(C)(=O)=O)C2COC3CCC(CC3)c3ccc(F)c(n3)OCCCOC(=O)N21 (some centres unmarked) [Example 57, N-((2^1S,2^4S,5^2R,5^3S,5^5R)-1^5-fluoro-5^5-methyl-6-oxo-3,7,11-trioxa-1(2,6)-pyridina-5(2,1)-pyrrolidina-2(1,4)-cyclohexanacycloundecaphane-5^3-yl)methanesulfonamide]
101% | C[C@@H]1C[C@H](NS(C)(=O)=O)C2COC3CCC(CC3)c3cc(F)cc(c3F)OCCCOC(=O)N21 (some centres unmarked) [Example 48, N-((2^1S,2^4S, 5^2R,5^3S,5^5R)-1^2,1^5-difluoro-5^5-methyl-6-oxo-3,7,11-trioxa-5(2,1)-pyrrolidina-1(1,3)-benzena-2(1,4)-cyclohexana-cyclounde-caphane-5^3-yl)methane-sulfonamide]
99.1% | CN(C)S(=O)(=O)N[C@H]1CCN2C(=O)OCCCOc3cccc(c3)[C@H]3CC[C@H](CC3)OC[C@@H]12 [Example 16, N′-((2^1S,2^4S, 5^2R,5^3S)-6-oxo-3,7,11-trioxa-5(2,1)-pyrrolidina-1(1,3)-benzena-2(1,4)-cyclohexana-cyclounde-caphane-5^3-yl)-N,N-dimethyl-sulfamide]
100% | C[C@@H]1C[C@H](NS(C)(=O)=O)[C@@H]2COC3CCC(CC3)c3ccccc3CCOC(=O)N12 [Example 5, N-((2^1R,2^4R,5^2R,5^3S, 5^5R)-5^5-methyl-6-oxo-3,7-dioxa-5(2,1)-pyrrolidina-1(1,2)-benzena-2(1,4)-cyclo-hexanacyclonaphane-5^3-yl)methane sulfonamide]
102% | C[C@@H]1C[C@H](NS(C)(=O)=O)C2COC3CCC(CC3)c3ccc(OC(F)(F)F)c(n3)OCCOC(=O)N21 (some centres unmarked) [Example 72, N-((2^1S,2^4S,5^2R,5^3S,5^5R)-5^5-methyl-6-oxo-1^5-(trifluoromethoxy)-3,7,10-trioxa-1(2,6)-pyridina-5(2,1)-pyrrolidina-2(1,4)-cyclohexanacyclodecaphane-5^3-yl)methanesulfonamid]
102% | COc1cc2nc(c1)C1CCC(CC1)OCC1[C@@H](NS(C)(=O)=O)C[C@@H](C)N1C(=O)OCCO2 (some centres unmarked) [Example 70, N-((2^1S,2^4S,5^2R,5^3S,5^5R)-1^4-methoxy-5^5-methyl-6-oxo-3,7,10-trioxa-1(2,6)-pyridina-5(2,1)-pyrrolidina-2(1,4)-cyclohexanacyclodecaphane-5^3-yl)methanesulfonamide]

Same assay, conditions: hOX2R IP-One; percentage of mean max effect of a reference compound at 1 uM with 100% activity

Emax (%) | SMILES
100.1% | CS(=O)(=O)NC1CCCN2C(=O)CCCOc3cccc(c3)C3CCC(C3)OCC12 (single isomer, unassigned) [Example 35, N-((2^1S,2^3R,5^2R,5^3S)-6-oxo-3,10-dioxa-5(2,1)-piperidina-1(1,3)-benzena-2(1,3)-cyclopentanacyclodecaphane-5^3-yl)methanesulfonamide]
103.3% | CS(=O)(=O)NC1CCCN2C(=O)CCCOc3cccc(c3)C3CCC(C3)OCC12 (single isomer, unassigned) [Example 36, N-((2^1S,2^3R,5^2R,5^3S)-6-oxo-3,10-dioxa-5(2,1)-piperidina-1(1,3)-benzena-2(1,3)-cyclopentanacyclodecaphane-5^3-yl)methanesulfonamide]
